Patent US20240165196A1, “Beta-Lactamase Inhibitors” (VIB VZW, priority 2021, published 2024)

Experiments:
[1] = tested on: HeLa; assay type: cell-based, human
Source text: (§1) FIGS. 4A-4K. […] IV—Intravenous, IP—Intraperitoneal, SC—Subcutaneously. The data shown is from a single experiment with 4 animals per group. […] (ns—non significant, #—P>0.05, *—P≤0.05, ***—P≤0.01, ****—P≤0.001). (FIG. 4G) FICI plot as in FIG. 2, for the E. coli strains indicated and the combination of penicillin and the TEM3.2 peptide. […] (FIG. 4J) Same as FIG. 4H for peptide BGAL. (FIG. 4K) Same as FIG. 4H for peptide P33.
(§2) Given this broad activity on clinical isolates, we wondered if the TEM3.2 peptide could be used to re-sensitize bacteria to ampicillin treatment in vivo, in a mouse Urinary Tract Infection (UTI) model.

[2] = tested on: E. coli UZ_TEM104; test: FACS analysis with Propidium Iodide and pFTAA; assay type: cell-based
Method: (§3) FIGS. 3A-3P. […] Three replicates are shown for each condition. […] A single representative image is shown. […] Three replicates are shown for each condition. (FIG. 3E) [Left] […] [Middle] […] [Right] […] A single representative image is shown. […] A single representative image is shown. […] A single representative image is shown. […] A single representative blot is shown. […] 106 cells were analysed for the plot.
First, we tested the assay using a mixture of live and heat inactivated (FIG. 3L) or just live bacteria (FIG. 3M), showing that heat inactivated, but not live bacteria are stained with PI, and neither are stained with pFTAA.
Bacterial cells in the cleaned suspensions were stained with both propidium iodide (PI) and FITC peptide to evaluate the killing rate and peptide uptake in a two-dimensional analysis. […] Treated bacteria washed with PBS buffer two times. One microliter of PI (Invitrogen) was added to the bacteria and incubated for 5 min. The bacteria were used by FACS tubes for 40000 events. To correlate the activity of the peptides with cell death, the fluorescence intensity was measured in two channels using the Gallios™ Flow Cytometer (Beckman Coulter, USA), PI: excitation 536 nm and emission 617 nm, FITC: excitation 490 nm and emission 525 nm. Heated bacteria at 90° C. for 10 min were used as PI-positive control.

[3] = tested on: E. coli strains carrying NDMs; test: checkerboard assay (FICI), TEM3.2 and penicillin; assay type: cell-based; details: strains containing NDMs; significant spread
Source text: as §1
As we wondered about the generality of our peptide design approach, we set out to design a peptide to inactivate a structurally unrelated beta-lactamase. […] This enzyme was first isolated from a patient in 200850, by 2010 could be detected in clinical isolates throughout the UK and India^51 and by 2015 was detected in over 70 countries worldwide^52.
For the analysis of the synergy between the peptides with other antibiotics, a checkerboard assay was performed. […] FICI is calculated as the sum of the individual fractional inhibitory concentrations (FICs) for each drug (where MIC A and MIC B denote the MIC of each drug alone, and MIC AA+B and MIC BA+B denote the concentrations of A and B in the drug combination). […]

[4] = tested on: E. coli strain lacking TEM (ATCC 25922); test: Structured Illumination Microscopy of peptide-treated bacteria lacking TEM; assay type: cell-based; details: same treatment as UZ_TEM104
Method: as §3
Moreover, we confirmed the presence of the protein in the correct band using mass spectrometry proteomics. We repeated this with a strain expressing SHV-154, blotting with a polyclonal rabbit antibody raised against the recombinant SHV enzyme described above (FIG. 3K).
The bacterial cultures were washed with PBS and the number of the bacteria were adjusted to 10^8-10^9 cells/mL. […] Then, cells were treated with LCO dyes (pFTAA; Amytacker™ 680 or Amytacker™ 545: final concentration of 0.5 μM; Ebba Biotech, Sweden) for at least 90 min. The absorption, emission and excitation spectra for each dye were measured based on the standard Ebbabiotec advice (ebbabiotech.com).
Bacteria were fixed by adding 2.5% paraformaldehyde and 0.04% glutaraldehyde (final concentrations) to the culture media, followed by incubation at room temperature for 15 mins and 30 mins on ice. Bacteria were then washed in PBS and resuspended in GTE buffer (50 mM glucose, 25 mM Tris, and 10 mM EDTA, pH 8.0). […]

[5] = molecular target: T1, recombinantly purified TEM-1 (Escherichia coli, UniProt P62593); assay type: biochemical, E. coli; details: thioflavin-T aggregation assay
T1 construct: DNA TEM (870 bp) or SHV (894 bp) were each sub-cloned into a PUC57 vector cloning site NdeI/XhoI; His-tag (N); TEV cleavage site (N); made in house; host or cells: E. coli BL21 (DE3)
Source text: Three replicates are shown for each condition. […] A single representative image is shown. […] Three replicates are shown for each condition. […] A single representative image is shown. […] A single representative image is shown. […] A single representative image is shown.

[6] = tested on: primary Human Umbilical Vein Endothelial Cells (HUVEC); assay type: cell-based
[7] = mouse, in vivo, iv, 5 mg/kg
Method: Vehicle alone (0.9% NaCl) was also administered (IV).

[8] = tested on: human erythrocytes; assay type: cell-based
Source text: as §1, §2
EDTA was used as the anticoagulant. […] Plate centrifuged for 10 min at 3000×g. […] Erythrocytes in 1% Triton and maximum used concentration of buffer were used as the control of 100% and 0% hemolysis, respectively.

T1 sequence (P62593 24-286 limits assumed): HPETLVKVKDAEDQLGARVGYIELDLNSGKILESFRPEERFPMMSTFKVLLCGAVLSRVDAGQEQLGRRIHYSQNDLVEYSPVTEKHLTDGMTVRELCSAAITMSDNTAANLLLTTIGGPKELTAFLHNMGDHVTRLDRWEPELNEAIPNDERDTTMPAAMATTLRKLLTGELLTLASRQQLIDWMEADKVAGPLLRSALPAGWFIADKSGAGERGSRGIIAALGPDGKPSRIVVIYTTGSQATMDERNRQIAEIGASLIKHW

Ac-RLTAFLHNRRPRLTAFLRQRR-NH2 [TEM3.2]
cytotoxicity (Cell Titer Blue) [1]: not cytotoxic | cells with non-lethal aggregation (shift only in pFTAA channel) ([2]; 50 μg/mL TEM3.2 in PBS, 4 h): > 99% | change in PI (cell death) and pFTAA (aggregation) channels ([2]; 400 μg/mL penicillin G and 50 μg/mL TEM3.2, 4 h): shift in both channels | synergy with penicillin (FICI) [3]: little or no synergy | inclusion body formation [4]: only very limited inclusion body formation | induction of aggregation of recombinantly purified TEM beta-lactamase [5]: potent inducer of the aggregation | cytotoxicity (Cell Titer Blue) [6]: not cytotoxic | hematologic analysis [7]: no major discrepancies to vehicle treated controls | hemolysis of human erythrocytes [8]: not hemolytic
